From article PMC6757289, “Design and Characterization of SGK3-PROTAC1, an Isoform Specific SGK3 Kinase PROTAC Degrader” (ACS Chemical Biology, 2019)
Read-outs that look alike come from different tables or passages of the source.

Key:
Test in all cases: kinase profiling panel
Type in all cases: biochemical
[1] = target: JNK2 (Homo sapiens, UniProt P45984); details: read-out: % Activity Remaining
Source text: (§1) Protein kinase profiling against a Dundee panel of 140 protein kinases was undertaken at the International Centre for Protein Kinase Profiling. The result for each kinase was presented as a mean kinase activity of the reaction taken in triplicate relative to a control sample treated with DMSO. Assay conditions and abbreviations are available at http://www.kinase-screen.mrc.ac.uk.

[2] = target: PIM2 (Homo sapiens, UniProt Q9P1W9); details: read-out: % Activity Remaining
Source text: as §1

[3] = target: T1, DYRK3 (Homo sapiens, UniProt O43781); details: read-out: % Activity Remaining
T1 sequence (O43781 1-588): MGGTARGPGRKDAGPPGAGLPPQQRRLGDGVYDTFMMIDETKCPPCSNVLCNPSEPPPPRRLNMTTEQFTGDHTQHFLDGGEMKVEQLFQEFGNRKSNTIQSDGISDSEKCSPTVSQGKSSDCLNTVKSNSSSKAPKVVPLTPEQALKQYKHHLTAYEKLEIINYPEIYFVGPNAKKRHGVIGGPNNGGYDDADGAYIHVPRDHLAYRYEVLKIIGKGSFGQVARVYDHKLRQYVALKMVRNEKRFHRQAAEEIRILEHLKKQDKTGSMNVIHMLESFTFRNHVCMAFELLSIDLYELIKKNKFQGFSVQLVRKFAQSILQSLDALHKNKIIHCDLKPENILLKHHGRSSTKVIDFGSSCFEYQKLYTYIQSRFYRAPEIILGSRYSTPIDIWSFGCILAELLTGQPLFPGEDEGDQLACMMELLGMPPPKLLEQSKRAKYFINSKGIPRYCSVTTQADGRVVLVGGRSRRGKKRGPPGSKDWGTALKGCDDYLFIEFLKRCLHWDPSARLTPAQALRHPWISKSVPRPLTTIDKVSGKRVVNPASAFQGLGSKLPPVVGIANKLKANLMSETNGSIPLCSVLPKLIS
Source text: as §1

[4] = tested on: AMPK (hum); details: 1 µM
Source text: as §1

[5] = tested on: PHK; details: 1 µM
Source text: as §1

[6] = target: PKB alpha (Homo sapiens, UniProt P31749); details: read-out: % Activity Remaining
Source text: as §1

[7] = target: T2, BRSK2 (Homo sapiens, UniProt Q8IWQ3); details: read-out: % Activity Remaining
T2 sequence (Q8IWQ3 1-736): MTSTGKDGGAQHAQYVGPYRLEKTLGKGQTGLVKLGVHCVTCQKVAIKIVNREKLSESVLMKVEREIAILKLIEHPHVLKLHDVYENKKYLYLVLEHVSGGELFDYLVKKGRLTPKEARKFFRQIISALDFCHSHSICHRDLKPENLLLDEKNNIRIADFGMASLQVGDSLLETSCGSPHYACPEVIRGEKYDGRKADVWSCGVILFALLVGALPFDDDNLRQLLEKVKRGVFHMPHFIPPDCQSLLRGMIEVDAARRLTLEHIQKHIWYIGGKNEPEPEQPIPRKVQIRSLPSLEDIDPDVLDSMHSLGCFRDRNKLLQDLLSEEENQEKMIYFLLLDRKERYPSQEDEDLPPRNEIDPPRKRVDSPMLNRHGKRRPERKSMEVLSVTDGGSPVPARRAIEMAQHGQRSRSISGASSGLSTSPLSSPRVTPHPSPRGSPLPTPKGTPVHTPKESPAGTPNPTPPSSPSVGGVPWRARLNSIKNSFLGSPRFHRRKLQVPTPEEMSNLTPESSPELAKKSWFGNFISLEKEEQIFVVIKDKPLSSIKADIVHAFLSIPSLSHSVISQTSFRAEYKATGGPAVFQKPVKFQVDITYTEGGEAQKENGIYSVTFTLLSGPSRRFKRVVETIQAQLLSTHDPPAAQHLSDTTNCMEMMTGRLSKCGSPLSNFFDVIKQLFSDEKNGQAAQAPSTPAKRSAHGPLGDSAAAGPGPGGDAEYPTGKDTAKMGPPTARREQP
Source text: as §1

[8] = target: T3, Aurora A (Homo sapiens, UniProt O14965); details: read-out: % Activity Remaining
T3 sequence (O14965 1-403): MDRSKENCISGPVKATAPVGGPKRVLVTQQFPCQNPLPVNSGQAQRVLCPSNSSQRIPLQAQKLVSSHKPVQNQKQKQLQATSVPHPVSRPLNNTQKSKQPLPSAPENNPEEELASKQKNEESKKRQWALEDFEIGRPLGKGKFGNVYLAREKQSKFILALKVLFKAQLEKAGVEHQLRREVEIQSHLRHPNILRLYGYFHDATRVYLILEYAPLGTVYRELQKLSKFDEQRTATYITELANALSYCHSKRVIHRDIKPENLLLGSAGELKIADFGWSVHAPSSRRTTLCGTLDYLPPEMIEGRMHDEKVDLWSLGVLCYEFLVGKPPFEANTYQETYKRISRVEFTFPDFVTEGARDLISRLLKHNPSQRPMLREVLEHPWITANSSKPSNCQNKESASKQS
Source text: as §1

[9] = target: MST3 (Homo sapiens, UniProt Q9Y6E0); details: read-out: % Activity Remaining
Source text: as §1

[10] = target: PLK1 (Homo sapiens, UniProt P53350); details: read-out: % Activity Remaining
Source text: as §1

[11] = target: PAK2 (Homo sapiens, UniProt Q13177); details: read-out: % Activity Remaining
Source text: as §1

[12] = target: T4, PKC zeta (Homo sapiens, UniProt Q05513); details: read-out: % Activity Remaining
T4 sequence (Q05513 1-592): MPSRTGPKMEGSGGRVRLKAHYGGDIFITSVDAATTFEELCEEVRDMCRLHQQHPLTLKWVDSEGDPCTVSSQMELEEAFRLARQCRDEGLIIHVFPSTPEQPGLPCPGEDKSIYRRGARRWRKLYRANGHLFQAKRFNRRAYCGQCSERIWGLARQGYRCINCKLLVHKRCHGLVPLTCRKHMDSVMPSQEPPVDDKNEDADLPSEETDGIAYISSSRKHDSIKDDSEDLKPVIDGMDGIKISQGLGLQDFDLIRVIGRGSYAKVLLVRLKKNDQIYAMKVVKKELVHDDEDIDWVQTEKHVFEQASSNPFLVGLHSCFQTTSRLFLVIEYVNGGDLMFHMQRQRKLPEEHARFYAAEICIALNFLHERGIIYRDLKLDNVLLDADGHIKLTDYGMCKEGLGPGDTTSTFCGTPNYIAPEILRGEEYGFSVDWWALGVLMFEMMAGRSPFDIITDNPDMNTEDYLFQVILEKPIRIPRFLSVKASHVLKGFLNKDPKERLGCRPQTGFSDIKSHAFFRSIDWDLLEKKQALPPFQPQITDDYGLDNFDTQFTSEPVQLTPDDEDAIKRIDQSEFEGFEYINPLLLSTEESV
Source text: as §1

Sequence of PKB alpha (P31749 whole entry): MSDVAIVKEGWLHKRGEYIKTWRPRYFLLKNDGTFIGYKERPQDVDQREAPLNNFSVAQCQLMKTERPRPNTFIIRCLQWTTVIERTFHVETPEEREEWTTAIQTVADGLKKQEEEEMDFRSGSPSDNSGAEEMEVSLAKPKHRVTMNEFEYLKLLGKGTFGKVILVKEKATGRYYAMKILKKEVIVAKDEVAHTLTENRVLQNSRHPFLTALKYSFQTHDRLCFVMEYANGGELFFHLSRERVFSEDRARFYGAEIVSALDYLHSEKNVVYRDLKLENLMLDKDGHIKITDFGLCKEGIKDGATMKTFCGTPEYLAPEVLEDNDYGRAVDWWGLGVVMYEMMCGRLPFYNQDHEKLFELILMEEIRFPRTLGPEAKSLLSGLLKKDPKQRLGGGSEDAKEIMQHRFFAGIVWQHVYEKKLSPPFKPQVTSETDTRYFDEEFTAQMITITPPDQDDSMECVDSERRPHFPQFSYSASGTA
Sequence of PIM2 (Q9P1W9 whole entry): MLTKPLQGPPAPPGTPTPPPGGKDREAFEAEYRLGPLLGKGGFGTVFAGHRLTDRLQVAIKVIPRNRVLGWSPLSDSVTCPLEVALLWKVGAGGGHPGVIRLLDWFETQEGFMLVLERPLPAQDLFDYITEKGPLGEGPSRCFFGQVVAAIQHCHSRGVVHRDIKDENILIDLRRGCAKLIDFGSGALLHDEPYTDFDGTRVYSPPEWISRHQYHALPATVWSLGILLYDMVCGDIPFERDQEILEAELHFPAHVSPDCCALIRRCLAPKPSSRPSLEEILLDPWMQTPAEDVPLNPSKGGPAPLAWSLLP
Sequence of MST3 (Q9Y6E0 whole entry): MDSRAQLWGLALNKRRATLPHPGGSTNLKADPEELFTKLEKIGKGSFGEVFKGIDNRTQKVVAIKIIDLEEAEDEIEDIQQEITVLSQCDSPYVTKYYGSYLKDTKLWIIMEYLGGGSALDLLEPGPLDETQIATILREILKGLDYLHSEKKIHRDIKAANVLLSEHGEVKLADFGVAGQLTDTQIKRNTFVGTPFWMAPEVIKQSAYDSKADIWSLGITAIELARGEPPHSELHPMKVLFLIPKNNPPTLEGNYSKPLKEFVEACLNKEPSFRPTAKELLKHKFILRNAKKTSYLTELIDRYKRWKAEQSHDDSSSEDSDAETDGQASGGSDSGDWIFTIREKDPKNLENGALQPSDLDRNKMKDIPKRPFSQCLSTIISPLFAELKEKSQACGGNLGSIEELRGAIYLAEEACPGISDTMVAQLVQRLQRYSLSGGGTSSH
Sequence of JNK2 (P45984 whole entry): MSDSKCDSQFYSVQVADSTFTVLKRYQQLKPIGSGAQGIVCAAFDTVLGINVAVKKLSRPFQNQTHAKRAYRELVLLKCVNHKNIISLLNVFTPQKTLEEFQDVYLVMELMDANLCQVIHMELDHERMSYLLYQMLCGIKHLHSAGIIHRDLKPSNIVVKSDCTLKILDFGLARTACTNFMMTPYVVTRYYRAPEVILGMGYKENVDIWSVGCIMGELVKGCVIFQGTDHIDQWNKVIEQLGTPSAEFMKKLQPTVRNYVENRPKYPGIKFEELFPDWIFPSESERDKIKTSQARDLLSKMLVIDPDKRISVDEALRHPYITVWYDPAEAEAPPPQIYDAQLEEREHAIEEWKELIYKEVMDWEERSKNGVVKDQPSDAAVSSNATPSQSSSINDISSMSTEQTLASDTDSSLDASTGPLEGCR
Sequence of PLK1 (P53350 whole entry): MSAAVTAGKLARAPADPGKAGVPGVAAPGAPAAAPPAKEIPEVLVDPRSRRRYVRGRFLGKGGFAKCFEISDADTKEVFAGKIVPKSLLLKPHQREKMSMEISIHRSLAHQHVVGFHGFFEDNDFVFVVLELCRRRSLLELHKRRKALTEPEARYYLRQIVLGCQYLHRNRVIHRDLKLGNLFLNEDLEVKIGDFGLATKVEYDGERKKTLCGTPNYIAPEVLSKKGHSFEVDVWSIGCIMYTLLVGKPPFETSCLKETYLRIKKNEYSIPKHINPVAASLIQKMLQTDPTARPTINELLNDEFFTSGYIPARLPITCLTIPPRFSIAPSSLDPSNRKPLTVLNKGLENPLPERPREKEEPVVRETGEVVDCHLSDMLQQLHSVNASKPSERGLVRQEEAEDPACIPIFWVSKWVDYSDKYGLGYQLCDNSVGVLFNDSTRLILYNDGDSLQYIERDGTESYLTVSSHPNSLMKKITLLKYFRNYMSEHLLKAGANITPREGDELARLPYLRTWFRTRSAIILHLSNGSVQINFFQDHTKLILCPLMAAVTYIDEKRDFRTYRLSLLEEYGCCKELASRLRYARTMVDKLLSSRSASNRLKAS
Sequence of PAK2 (Q13177 whole entry): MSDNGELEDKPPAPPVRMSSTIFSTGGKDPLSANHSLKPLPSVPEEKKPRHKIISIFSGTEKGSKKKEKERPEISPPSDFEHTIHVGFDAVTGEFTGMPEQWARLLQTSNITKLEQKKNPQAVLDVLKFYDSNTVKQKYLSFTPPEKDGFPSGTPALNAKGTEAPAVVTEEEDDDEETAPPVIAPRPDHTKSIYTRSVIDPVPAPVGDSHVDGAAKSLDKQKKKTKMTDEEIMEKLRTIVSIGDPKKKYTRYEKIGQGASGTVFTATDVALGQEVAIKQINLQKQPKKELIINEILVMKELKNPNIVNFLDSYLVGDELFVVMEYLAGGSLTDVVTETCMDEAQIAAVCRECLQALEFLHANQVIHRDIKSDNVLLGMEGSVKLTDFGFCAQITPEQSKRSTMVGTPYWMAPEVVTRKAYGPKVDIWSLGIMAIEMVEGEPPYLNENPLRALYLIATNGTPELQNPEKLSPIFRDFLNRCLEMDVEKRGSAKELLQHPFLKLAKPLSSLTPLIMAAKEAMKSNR

SMILES | remaining activity at 1 µM ([1]; 1 µM) [%] | remaining activity at 1 µM ([2]; 1 µM) [%] | remaining activity at 1 µM ([3]; 1 µM) [%] | % Activity Remaining [4] [%] | % Activity Remaining [5] [%] | remaining activity at 1 µM ([6]; 1 µM) [%] | remaining activity at 1 µM ([7]; 1 µM) [%] | remaining activity at 1 µM ([8]; 1 µM) [%] | remaining activity at 1 µM ([9]; 1 µM) [%] | remaining activity at 1 µM ([10]; 1 µM) [%] | remaining activity at 1 µM ([11]; 1 µM) [%] | remaining activity at 1 µM ([12]; 1 µM) [%] | remaining activity at 1 µM [1] [%] | remaining activity at 1 µM [2] [%] | remaining activity at 1 µM [3] [%] | remaining activity at 1 µM [6] [%] | remaining activity at 1 µM [7] [%] | remaining activity at 1 µM [8] [%] | remaining activity at 1 µM [9] [%] | remaining activity at 1 µM [10] [%] | further results
Cc1ccc(F)c(S(=O)(=O)Nc2ccc(-c3nc(OC[C@H]4CN(CCCCCCOCCOCCOCC(=O)N[C@H](C(=O)N5C[C@H](O)C[C@H]5C(=O)NCc5ccc(-c6scnc6C)cc5)C(C)(C)C)CCO4)c4cn[nH]c4n3)cc2)c1 [SGK3-PROTAC1] | 117 | 98 | 102 | 105 | 113 | 105 | 97 | 90 | 102 | 98 | 116 | 96 | – | – | – | – | – | – | – | – | –
COc1ccc(Cl)c(S(=O)(=O)Nc2ccc(-c3nc(OC[C@H]4CNCCO4)c4c(C)n[nH]c4n3)cc2)c1 [290-R, reference compound] | – | – | – | 15 | 97 | – | – | – | – | – | – | – | 105 | 105 | 89 | 49 | 102 | 108 | 57 | 102 | remaining activity at 1 µM [11]: 90%; remaining activity at 1 µM [12]: 110%
Cc1ccc(F)c(S(=O)(=O)Nc2ccc(-c3nc(OC[C@H]4CN(CCCCCCOCCOCCOCC(=O)N[C@H](C(=O)N5C[C@@H](O)C[C@H]5C(=O)NCc5ccc(-c6scnc6C)cc5)C(C)(C)C)CCO4)c4cn[nH]c4n3)cc2)c1 [cisSGK3-PROTAC1] | 109 | 105 | 104 | 108 | 122 | 117 | 101 | 91 | 113 | 98 | 99 | 110 | – | – | – | – | – | – | – | – | –
Cc1ccc(F)c(S(=O)(=O)Nc2ccc(-c3nc(OC[C@H]4CNCCO4)c4cn[nH]c4n3)cc2)c1 [308-R, reference compound] | – | – | – | 78 | 83 | – | – | – | – | – | – | – | 113 | 127 | 99 | 96 | 82 | 109 | 79 | 86 | remaining activity at 1 µM [11]: 53%; remaining activity at 1 µM [12]: 72%
